Results taken from paper PMC10666288, “Unveiling the Catalytic Mechanism of a Processive Metalloaminopeptidase” (Biochemistry, 2023).
Where two headings read alike, the source gives them in different places.

Columns and labels:
Type in all cases: biochemical
Design in all cases: GG stays after cleavage) (N); made in house; host or cells: E. coli BL21(DE3)
PaPepA [1] = target: T1, PaPepA (Pseudomonas aeruginosa, UniProt Q02RY8); conditions: aa-pNA varied, 3 mM MnCl2, 100 nM PaPepA, pH 8.0, 25 °C
T1 sequence (Q02RY8 whole entry): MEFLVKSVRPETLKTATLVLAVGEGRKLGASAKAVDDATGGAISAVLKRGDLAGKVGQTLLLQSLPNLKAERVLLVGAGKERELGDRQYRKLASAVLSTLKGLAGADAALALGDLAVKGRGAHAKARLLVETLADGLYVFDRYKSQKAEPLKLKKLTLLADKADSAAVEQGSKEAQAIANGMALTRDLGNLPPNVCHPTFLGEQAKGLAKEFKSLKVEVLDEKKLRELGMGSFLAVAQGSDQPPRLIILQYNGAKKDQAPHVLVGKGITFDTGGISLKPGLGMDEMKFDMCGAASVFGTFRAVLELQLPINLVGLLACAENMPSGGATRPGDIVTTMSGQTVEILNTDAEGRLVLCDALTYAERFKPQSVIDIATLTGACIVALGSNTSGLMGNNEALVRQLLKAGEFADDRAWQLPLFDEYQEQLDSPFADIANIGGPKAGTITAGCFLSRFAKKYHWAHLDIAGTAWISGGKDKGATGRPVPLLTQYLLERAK
Description: (§1) A BMG Labtech POLARstar Omega plate reader was used for activity assays and kinetic studies involving amino acids conjugated to para-nitroaniline (pNA) (Sigma) or peptides as substrates. Assays were carried out at 25 °C in clear half-area 96-well plates (Greiner Bio-One). […] For kinetic assays investigating Leu-AMC as a substrate, a SpectraMax M2E was used. Reactions were carried out using black half-area 96-well plates with clear bottoms (Greiner Bio-One). Product formation was assessed by monitoring changes in fluorescence, with the excitation wavelength set at 341 nm and emission at 441 nm. The cutoff was 420 nm. PMT gain was set to medium, with six flashes per read. […] Calibration curves of pNA concentration vs absorbance and AMC vs fluorescence were constructed, and initial rate values were divided by the slope of these calibration curves to reveal the rate of product formation over time (Table S2).
(§2) For all assays excluding pH dependence curves, buffer conditions were as follows: 100 mM HEPES, 50 mM KCl, and pH 8.0. For assays carried out under pseudo-first-order conditions, one reaction component was fixed and in excess, while the other was varied. […] For assays involving variation of aa-pNA or aa-AMC, MnCl2 was added to a final concentration of 3 mM.

PaPepA [2] = target: T1, PaPepA; test: Metal activation of Leu-pNA cleavage (metal varied, Leu-pNA fixed); conditions: with 2 mM Leu-pNA, pH 8.0
Description: as §1, §2

PaPepA [3] = target: T1, PaPepA; test: Pre-steady-state stopped-flow kinetics with global fit; conditions: global fit
Description: An Applied Photophysics SX20 stopped-flow spectrofluorimeter was used to perform kinetic measurements under pre-steady-state conditions. The instrument was equipped with a xenon lamp, a 5 μL mixing cell, and a circulating water bath to maintain constant temperature. All reactions were carried out in 100 mM HEPES (pH 8.0) and 50 mM KCl at 25 °C. Enzyme and metal ions were kept in one syringe, while the other substrate (Leu-pNA or Leu-AMC) was kept in the second syringe. The reaction was triggered by rapid mixing of 55 μL from each syringe. Three traces with 10,000 points per trace were collected per experiment.
For absorbance measurements, product formation was monitored by reading the pNA absorbance at 405 nm (5 mm path length). Multiple turnover rates were measured in the presence of saturating concentrations of both metal and Leu-pNA. PaPepA was present at 1 or 10 μM, MnCl2 was present at 3 mM, and Leu-pNA was present at 250 μM. For fluorescence measurements, a path length of 1 mm was used. Reactions were followed by monitoring the appearance of a 7-amino-4-methylcoumarin (AMC) fluorophore following PaPepA-catalyzed breakdown of Leu-AMC. An excitation wavelength of 341 nm was used with a 400 nm cutoff filter for the emission. Slits were 1 nm for excitation and 2 nm for emission.
Experiments under single turnover conditions monitored fluorescence change with a detector voltage of 300 V, 0.1 μM Leu-AMC, 1.5 mM MnCl2, and varying PaPepA (0.5, 1, 2, 4, 8, 16, or 32 μM). Experiments under multiple turnover conditions monitored fluorescence change with a detector voltage of 250 V, 50 μM Leu-AMC, 1.2 μM PaPepA and varying concentrations of MnCl2 (0.2, 0.4, 0.6, 1.2, 2.4, 6, 9, 12, 18, 24, 60, 120, 1200, or 3600 μM).
Calibration curves of known concentrations of AMC were performed at detector voltages of 250 and 300 V. STO and MTO curves were divided by the slope of these calibration curves to convert the change in fluorescence observed to the concentration of AMC produced.
Pre-steady-state data were imported into KinTek Global Explorer and fit to linear or single-exponential equations using the aFit function to obtain standard deviation estimates. A kinetic model with five steps was considered, and rate constants and outputs were fitted according to this model. Initial estimates for rate constants were based on kcat and KM values. The FitSpace Editor was employed to determine confidence intervals for each of the rate constants. More details including model fitted and parameters used are available in the Supporting Information.
Supporting information note 4: Kintek Global Explorer fitting of stopped flow data Both MTO and STO pre-steady-state data were fit according to the mode described in Figure 4A with scaling factors for each fluorescent species (EP and P) to account for differences in AMC fluorescence whilst in complex with PaPepA versus free in solution. Scaling factors were different across STO and MTO experiments as both were carried out using different detector voltages.
The model that best fitted acquired data was as below, where F is metal free enzyme, E1 is PaPepA with one Mn2+ ion, E is PepA with two Mn2+ ions, S is Leu- […]
For fitting, k1 and k-1 ratios were constrained (linked) based KD for Mn2+ binding as measured by ITC (12nM). Initially, k2 and k-2 were allowed to vary without constraints, and values best fitted as well as Fitspace lower and upper boundaries are reported in Table 2. The value for k1 was best fitted as diffusion limited, and therefore was fixed in further fitting cycles. The best fitted value for k-2 was high and unconstrained, and therefore also fixed at 1000 s-1 for further fitting cycles. k3, k-3, k4, and k5 were not constrained. Multiple iterations of fitting were performed, and best fit values recorded. k1, k2, k3, k-3, k4, and k5 were evaluated using FitSpace Explorer to generate confidence intervals for each of these rate constants. […]

PaPepA [4] = target: T1, PaPepA; conditions: 5 % PEG 8000, labelled component varied, other saturating; in 1/s
PaPepA [5] = target: T1, PaPepA; conditions: labelled component varied
From the text: Viscosity effects were studied by using sucrose as a viscogen. Relative viscosities for different concentrations of sucrose were taken from Bazelyansky et al.[27] Concentrations of viscogen were as follows: 14% sucrose, ηrel = 1.5; 24% sucrose, ηrel = 2.2; and 32% sucrose, ηrel = 2.9.
Viscosity effects were fit to the following equation, where kinetic parameter0 and kinetic parameterη are kcat or kcat/KM in the […] of viscogen, respectively, ηrel is the relative viscosity of the solution, and m is the slope. [drawing 4] 4
All measurements were performed in triplicate.

PaPepA [6] = target: T1, PaPepA; test: Alcohol dehydrogenase peptide degradation assay (LC-MS); conditions: MassPREP ADH digest, 100 nM PaPepA, 3 mM MnCl2, overnight
Description: A vial of MassPREP ADH digestion standard (Waters) was reconstituted in 200 μL of LC-MS grade water. Reaction mixtures were prepared by combining 25 μL of ADH solution, 3 mM MnCl2, and 100 nM PaPepA (final concentrations) in a total volume of 50 μL buffer (100 mM HEPES pH 8.0, 50 mM KCl). For control reactions, the addition of PaPepA was omitted. Samples and controls were each prepared in triplicate and incubated overnight, and reactions quenched with the addition of […] of 10% TCA. Following the addition of acid, PaPepA was added to control samples to a final concentration of 50 nM (equivalent to a concentration of enzyme in the reaction samples following acid quenching). Samples were concentrated to 20 μL. A 1 μL portion of this was diluted in 100 μL of LC-MS grade water. 10 μL was injected and analyzed on a SCIEX TripleTOF 5600+ mass spectrometer with an Eksigent 425 nanoLC configured in trap elute configuration. Each sample was loaded onto the trap (Waters ACQUITY M-Class symmetry column 180 μm × 20 mm) and washed with 0.05% TFA in water for 5 min at 5 μL/min. The trap was then switched in line with the Waters M-Class HSS1 analytical column, 75 μm × 150 mm, with a flow rate of 300 nL/min. Samples were eluted over 30 min using a linear gradient from 98% A (100% water 0.1% FA) 2% B (80% MeCN, […] 0.1% FA) to 60% A, 40% B linearly over 12 min, rising to 5% A, 95% B, before returning to 98% A to re-equilibrate. Eluate from the column was sprayed directly into the nanospray source of the mass spectrometer. MS data were collected from 400 to 1250 m/z as the survey scan, and under data-dependent acquisition (DDA) setting, the top 20 strongest peptides were selected for MS/MS using CID fragmentation. Peptide mass tolerance was 20 ppm on the MS and 0.1 Da on the MS/MS.
Identification and analysis of ADH peptides were performed using the Skyline open-access software package (version 22.2). Raw data were extracted using msConvert (ProteoWizard) and the data searched using Skyline against the ADH1 sequence from Saccharomyces cerevisiae (UniProt: P00330). The digestion enzyme was set as trypsin, allowing up to three missed cleavages. Searches encompassed peptides between 400 and 1250 m/z with a mass tolerance of 0.3 m/z. Carbamidomethyl was set as a fixed modification for cysteine residues. Data were searched for the protonated 1+, 2+, and 3+ charge states of each peptide.
Peaks were integrated, and areas were used to qualitatively assess differences in peptide abundances across PaPepA-digested samples and controls. Peptides present in control samples but absent in reactions (integrated area <1000) were classified as “digested”.

C[C@H](N)C(=O)Nc1ccc([N+](=O)[O-])cc1 [Ala-pNA]
Km (PaPepA [1]): 220 ± 30 µM | kcat (PaPepA [1]): 0.037 ± 0.001 s^–1

[Co+2] [Co^2+]
KACT (PaPepA [2]): 0.17 ± 0.01 mM | kcat (PaPepA [2]): 0.137 ± 0.002 s^–1 | kcat/KACT (PaPepA [2]): 0.80 ± 0.06 s^–1mM^–1

[Fe+2] [Fe^2+]
KACT (PaPepA [2]): >10 mM | kcat (PaPepA [2]): 0.012 ± 0.003 s^–1

CCC(C)[C@H](N)C(=O)Nc1ccc([N+](=O)[O-])cc1 (some centres unmarked) [Ile-pNA]
Km (PaPepA [1]): 100 ± 30 µM | kcat (PaPepA [1]): 0.004 ± 0.000 s^–1

Cc1cc(=O)oc2cc(NC(=O)[C@H](N)CC(C)C)ccc12 [Leu-AMC]
k3, best-fitted value (PaPepA [3]; E + S = ES, S is Leu-AMC): 2.3 ± 0.1 μM^–1 s^–1 | k-3, best-fitted value (PaPepA [3]; E + S = ES, reverse, S is Leu-AMC): 47.9 ± 0.6 s^–1 | k5, best-fitted value (PaPepA [3]; EP = E + P): 13.4 ± 0.1 s^–1 | k4, best-fitted value (PaPepA [3]; ES = EP): 6.3 ± 0.1 s^–1

CC(C)C[C@H](N)C(=O)Nc1ccc([N+](=O)[O-])cc1 [Leu-pNA, reference compound]
kcat (PaPepA [4]): 0.391 ± 0.008 | kcat (PaPepA [5]; H2O (0% PEG-8000), other saturating, in 1/s): 0.335 ± 0.004 | Slope (sucrose) on kcat (PaPepA [5]; sucrose as viscogen): 0.03 ± 0.01 | Km (PaPepA [1]): 160 ± 10 µM | kcat (PaPepA [1]): 0.254 ± 0.005 s^–1

NCCCC[C@H](N)C(=O)Nc1ccc([N+](=O)[O-])cc1 [Lys-pNA]
Km (PaPepA [1]): 280 ± 40 µM | kcat (PaPepA [1]): 0.039 ± 0.002 s^–1

CSCC[C@H](N)C(=O)Nc1ccc([N+](=O)[O-])cc1 [Met-pNA]
Km (PaPepA [1]): 150 ± 20 µM | kcat (PaPepA [1]): 0.084 ± 0.003 s^–1

[Ni+2] [Ni^2+]
KACT (PaPepA [2]): 2.5 ± 0.4 mM | kcat (PaPepA [2]): 0.077 ± 0.003 s^–1 | kcat/KACT (PaPepA [2]): 0.032 ± 0.005 s^–1mM^–1

N[C@@H](Cc1ccccc1)C(=O)Nc1ccc([N+](=O)[O-])cc1 [Phe-pNA]
Km (PaPepA [1]): 260 ± 50 µM | kcat (PaPepA [1]): 0.115 ± 0.008 s^–1

O=C(Nc1ccc([N+](=O)[O-])cc1)[C@@H]1CCCN1 [Pro-pNA]
kcat (PaPepA [1]): 0.081 ± 0.003 s^–1 | Km (PaPepA [1]; read-out: KM): 1200 ± 80 µM

CC(C)[C@H](N)C(=O)Nc1ccc([N+](=O)[O-])cc1 [Val-pNA]
Km (PaPepA [1]): 50 ± 40 µM | kcat (PaPepA [1]): 0.002 ± 0.001 s^–1

EKDIVGAVLK [tryptic peptide of yeast ADH (MassPREP digestion standard)]
Cleaved? (PaPepA [6]): Not digested

GVIFYESHGK [tryptic peptide of yeast ADH (MassPREP digestion standard)]
Cleaved? (PaPepA [6]): Digested (Peptides present in control samples but absent in reactions (integrated area <1000) were classified as “digested”)

VLGIDGGEGK [tryptic peptide of yeast ADH (MassPREP digestion standard)]
Cleaved? (PaPepA [6]): Digested (Peptides present in control samples but absent in reactions (integrated area <1000) were classified as “digested”)

YSGVC[+57.0]HTDLHAWHGDWPLPVK: tryptic peptide of yeast ADH, carbamidomethyl cysteine
Cleaved? (PaPepA [6]): Digested (Peptides present in control samples but absent in reactions (integrated area <1000) were classified as “digested”)
